“Also recorded” adds a separate entry of the source.
What was measured:
mouse adipocytes = settings: in vitro; cited from earlier work
serum leptin = experiment: Serum leptin concentration in WT and GDF-8 KO mice (Example 2); assay type: in vivo; settings: 200 ppm in diet
Method: (§1) Animals: Twelve-week old male (n=10) and female (n=10) GDF-8 (−/−) knockout mice and male (n=10) and female (n=10) GDF-8 (+/+) WT mice were used in the study. GDF-8 knockout mice, which were derived from the 129/SvJ mouse strain, were originally obtained from MetaMorphix Inc. and were bred in-house for the study. Mice were housed singly in suspended wire cages in a room maintained at 22±1 C and with a 12:12 hour light/dark cycle. Mice were provided ground rodent chow (ProLab® RMH 2500; Purina Mills, St. Louis, Mo.) and water ad libitum. Mice were cared for in accordance with the Guide for the Care and Use of Laboratory Animals.
(§2) Materials: Clenbuterol (Sigma Chemical Company, St. Louis, Mo., item# C5423), was thoroughly mixed into the ground rodent chow to provide a 200 ppm concentration.
Daily Observations: Food intake was measured daily, and body weight was measured on days 0, 3, 7, 10, 14, 17, 20, and 21 at approximately 1430 h during the treatment period. At 15 weeks of age (day 21), a final body weight measurement was obtained approximately one hour prior to euthanasia, and mice were sacrificed by decapitation following CO2 asphyxiation.

EPI/PAR and RP fat pads = experiment: EPI/PAR and RP fat pad apoptosis, % DNA fragmentation (Example 2); assay type: in vivo; settings: 200 ppm in diet, 21 days, WT and GDF-8 KO mice
Method: as §1, §2
DNA Isolation and Apoptosis Assay: DNA was isolated from fresh fat tissues and separated into two fractions: fragmented and genomic DNA. The samples were first run on an agarose gel to identify a ladder pattern of internucleosomal DNA degradation, which is characteristic of apoptosis (Qian, H., M. J. Azain, M. M. Compton, D. L. Hartzell, G. J. Hausman, and C. A. Baile, Brain administration of leptin causes deletion of adipocytes by apoptosis. Endocrinology, 1998. 139(2): p. 791-4). Apoptosis was then quantified as the ratio of fragmented- to total-DNA as previously described (Gullicksen, P. S., R. G. Dean, and C. A. Baile, Detection of DNA Fragmentation and Apoptotic Proteins, and Quantification of Uncoupling Protein Expression by Real-Time RT-PCR in Adipose Tissue. J Biochem Biophys Methods, 2004. 58(1): p. 1-13). […] DNA content was measured using PicoGreen (Molecular Probes, Inc., Eugene, Oreg.) on a SpectraMax Gemini Spectrofluorometer (Molecular Devices, Sunnyvale, Calif.). […] Apoptosis was verified by the presence of a DNA ladder pattern, which was visualized by a Fluor Chem 8000 fluorescence imaging system (Alpha Innotech, San Leandro, Calif.).
Statistical Analysis: The study was analyzed as a 2×2×2 factorial design (N=5/cell). […]

Q: Which results are given for CC(C)(C)NCC(O)c1cc(Cl)c(N)c(Cl)c1 (stereo not shown) [Clenbuterol, clenbuterol]?
A: Insulin-induced lipolysis in mouse adipocytes (mouse adipocytes): inhibited; Lipolysis in mouse adipocytes (mouse adipocytes): stimulated; Effect on serum leptin concentrations (serum leptin): did not significantly affect; also recorded: not affected; Serum Leptin Concentration (serum leptin; 20 days, Mean ± SEM): 3.98 ± 0.49 ng/mL; Adipocyte apoptosis in EPI/PAR and RP fat pads compared to control (EPI/PAR and RP fat pads): increased; % DNA Fragmentation EPI/PAR (EPI/PAR and RP fat pads; Mean ± SEM, control 0.9 ± 0.1): 2.5 ± 0.2 %; % DNA Fragmentation RP (EPI/PAR and RP fat pads; Mean ± SEM, control 0.9 ± 0.2): 2.5 ± 0.2 %

Source: patent US20040235922A1, “Compositions and methods for inducing adipose tissue cell death” (priority 2003, published 2004)
